US6355799B1, “Substituted benzene compounds, process for their preparation, and herbicidal and defoliant compositions containing them” (ISK Americas Incorporated, priority 1997, dated 2002)

Experiments:
Format in all cases: in vivo
[1] = tested on: redroot pigweed (Amaranthus retroflexus, AMARE); assay: Pre-emerge test, greenhouse herbicide activity screening; details: pre-emerge, 14 days after application, rating scale 0-100
Outline: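 Herbicidal damage is scored 0 (none) to 100 (complete plant death) two weeks after a simulated field spray. Rates span 15–1000 g ai/ha, delivered in acetone at 187 l/ha. For post-emergence treatments, plants have 2–3 leaves and the spray carries 0.25% v/v non-ionic surfactant.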

[2] = tested on: barnyardgrass (Echinochloa crus-galli, ECHCG); assay: as above; details: pre-emerge, 14 days after application, rating scale 0-100
Outline: (§1)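 Fourteen days after spraying, crop and weed injury was graded visually from 0, no effect, to 100, every plant dead. Test substances were dissolved in acetone and applied at 15–1000 g ai/ha with a flat-fan nozzle. Application was either pre-emergence, one day after sowing, or post-emergence at the 2–3 leaf stage.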

[3] = tested on: green foxtail (Setaria viridis, SETVI); assay: as above; details: pre-emerge, 14 days after application, rating scale 0-100
Outline: as §1

[4] = tested on: ivyleaf morningglory (Ipomoea hederacea, IPOHE); assay: as above; details: pre-emerge, 14 days after application, rating scale 0-100
Outline: as §1

[5] = tested on: johnsongrass (Sorghum halepense, SORHA); assay: as above; details: pre-emerge, 14 days after application, rating scale 0-100
Outline: as §1

[6] = tested on: lambsquarters (Chenopodium album, CHEAL); assay: as above; details: pre-emerge, 14 days after application, rating scale 0-100
Outline: as §1

[7] = tested on: large crabgrass (Digitaria sanguinalis, DIGSA); assay: as above; details: pre-emerge, 14 days after application, rating scale 0-100
Outline: as §1

[8] = tested on: sicklepod (Cassia obtusifolia, CASOB); assay: as above; details: pre-emerge, 14 days after application, rating scale 0-100
Outline: as §1

[9] = tested on: velvetleaf (Abutilon theophrasti, ABUTH); assay: as above; details: pre-emerge, 14 days after application, rating scale 0-100
Outline: as §1

[10] = tested on: field corn (Zea mays L., var. Dekalb 535, CORN); assay: Pre-emerge test, crop safety; details: pre-emerge, 14 days after application, rating scale 0-100
Outline: (§2)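 Compounds in acetone were track-sprayed at 187 l/ha, 15–1000 g ai/ha, onto sandy loam pots. Pre-emerge seeds were sown one day before spraying, with surface watering afterwards. Post-emerge plants were at the 2–3 leaf stage and sprayed with 0.25% v/v non-ionic surfactant. Injury was rated 0–100 at 14 days.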

[11] = tested on: upland rice (Oryza sp., var. Tebonnet, RICE); assay: Pre-emerge test, crop safety; details: pre-emerge, 14 days after application, rating scale 0-100
Outline: as §2

[12] = tested on: barnyardgrass (Echinochloa crus-galli, ECHCG); assay: Post-emerge test, greenhouse herbicide activity screening; details: rating scale 0-100 (0 no damage, 100 complete death), 14 days after application
Outline: (§3)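 Each test used a mechanized track sprayer delivering 187 l/ha of acetone solution at 15–1000 g ai/ha. Post-emerge foliage at 2–3 leaves was treated with added 0.25% v/v non-ionic surfactant and bottom-watered only. Injury was assessed on day 14, where 100 means total kill.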

[13] = tested on: common ragweed (Ambrosia artemisizfolia L., AMBEL); assay: as above; details: rating scale 0-100 (0 no damage, 100 complete death), 14 days after application
Outline: as §3

[14] = tested on: green foxtail (Setaria viridis, SETVI); assay: as above; details: rating scale 0-100 (0 no damage, 100 complete death), 14 days after application
Outline: as §3

[15] = tested on: ivyleaf morningglory (Ipomoea hederacea, IPOHE); assay: as above; details: rating scale 0-100 (0 no damage, 100 complete death), 14 days after application
Outline: as §3

[16] = tested on: johnsongrass (Sorghum halepense, SORHA); assay: as above; details: rating scale 0-100 (0 no damage, 100 complete death), 14 days after application
Outline: as §3

[17] = tested on: lambsquarters (Chenopodium album, CHEAL); assay: as above; details: rating scale 0-100 (0 no damage, 100 complete death), 14 days after application
Outline: as §3

[18] = tested on: large crabgrass (Digitaria sanguinalis, DIGSA); assay: as above; details: rating scale 0-100 (0 no damage, 100 complete death), 14 days after application
Outline: as §3

[19] = tested on: redroot pigweed (Amaranthus retroflexus, AMARE); assay: as above; details: rating scale 0-100 (0 no damage, 100 complete death), 14 days after application
Outline: as §3

[20] = tested on: sicklepod (Cassia obtusifolia, CASOB); assay: as above; details: rating scale 0-100 (0 no damage, 100 complete death), 14 days after application
Outline: as §3

[21] = tested on: velvetleaf (Abutilon theophrasti, ABUTH); assay: as above; details: rating scale 0-100 (0 no damage, 100 complete death), 14 days after application
Outline: as §3

[22] = tested on: field corn (Zea mays L., var. Dekalb 535, CORN); assay: Post-emerge test, crop safety; details: rating scale 0-100 (0 no damage, 100 complete death), 14 days after application
Outline: as §1

[23] = tested on: upland rice (Oryza sp., var. Tebonnet, RICE); assay: Post-emerge test, crop safety; details: rating scale 0-100 (0 no damage, 100 complete death), 14 days after application
Outline: as §1

## CCOC(=O)C(Cl)(C#N)Cc1c(OC)c(Cl)cc(F)c1-n1c(=O)cc(C(F)(F)F)n(C)c1=O (stereo not shown) [14-51]
[1]; 63 g ai/ha
  phytotoxicity rating AMARE: 100
[1]; 250 g ai/ha
  phytotoxicity rating AMARE: 100
[2]; 63 g ai/ha
  phytotoxicity rating ECHCG: 0
[2]; 250 g ai/ha
  phytotoxicity rating ECHCG: 0
[3]; 63 g ai/ha
  phytotoxicity rating SETVI: 0
[3]; 250 g ai/ha
  phytotoxicity rating SETVI: 0
[4]; 63 g ai/ha
  phytotoxicity rating IPOHE: 0
[4]; 250 g ai/ha
  phytotoxicity rating IPOHE: 50
[5]; 63 g ai/ha
  phytotoxicity rating SORHA: 0
[5]; 250 g ai/ha
  phytotoxicity rating SORHA: 0
[6]; 63 g ai/ha
  phytotoxicity rating CHEAL: 90
[6]; 250 g ai/ha
  phytotoxicity rating CHEAL: 100
[7]; 63 g ai/ha
  phytotoxicity rating DIGSA: 0
[7]; 250 g ai/ha
  phytotoxicity rating DIGSA: 0
[8]; 63 g ai/ha
  phytotoxicity rating CASOB: 0
[8]; 250 g ai/ha
  phytotoxicity rating CASOB: 0
[9]; 63 g ai/ha
  phytotoxicity rating ABUTH: 10
[9]; 250 g ai/ha
  phytotoxicity rating ABUTH: 100
[10]; 63 g ai/ha
  phytotoxicity rating CORN: 0
[10]; 250 g ai/ha
  phytotoxicity rating CORN: 0
[11]; 63 g ai/ha
  phytotoxicity rating RICE: 0
[11]; 250 g ai/ha
  phytotoxicity rating RICE: 0
[12]; Rate 63 g ai/ha
  Post-emerge Herbicidal Activity, phytotoxicity rating ECHCG: 10
[12]; Rate 250 g ai/ha
  Post-emerge Herbicidal Activity, phytotoxicity rating ECHCG: 20
[13]; Rate 63 g ai/ha
  Post-emerge Herbicidal Activity, phytotoxicity rating AMBEL: 0
[13]; Rate 250 g ai/ha
  Post-emerge Herbicidal Activity, phytotoxicity rating AMBEL: 20
[14]; Rate 63 g ai/ha
  Post-emerge Herbicidal Activity, phytotoxicity rating SETVI: 0
[14]; Rate 250 g ai/ha
  Post-emerge Herbicidal Activity, phytotoxicity rating SETVI: 0
[15]; Rate 63 g ai/ha
  Post-emerge Herbicidal Activity, phytotoxicity rating IPOHE: 0
[15]; Rate 250 g ai/ha
  Post-emerge Herbicidal Activity, phytotoxicity rating IPOHE: 30
[16]; Rate 63 g ai/ha
  Post-emerge Herbicidal Activity, phytotoxicity rating SORHA: 0
[16]; Rate 250 g ai/ha
  Post-emerge Herbicidal Activity, phytotoxicity rating SORHA: 0
[17]; Rate 63 g ai/ha
  Post-emerge Herbicidal Activity, phytotoxicity rating CHEAL: 0
[17]; Rate 250 g ai/ha
  Post-emerge Herbicidal Activity, phytotoxicity rating CHEAL: 10
[18]; Rate 63 g ai/ha
  Post-emerge Herbicidal Activity, phytotoxicity rating DIGSA: 0
[18]; Rate 250 g ai/ha
  Post-emerge Herbicidal Activity, phytotoxicity rating DIGSA: 0
[19]; Rate 63 g ai/ha
  Post-emerge Herbicidal Activity, phytotoxicity rating AMARE: 0
[19]; Rate 250 g ai/ha
  Post-emerge Herbicidal Activity, phytotoxicity rating AMARE: 0
[20]; Rate 63 g ai/ha
  Post-emerge Herbicidal Activity, phytotoxicity rating CASOB: 0
[20]; Rate 250 g ai/ha
  Post-emerge Herbicidal Activity, phytotoxicity rating CASOB: 0
[21]; Rate 63 g ai/ha
  Post-emerge Herbicidal Activity, phytotoxicity rating ABUTH: 0
[21]; Rate 250 g ai/ha
  Post-emerge Herbicidal Activity, phytotoxicity rating ABUTH: 50
[22]; Rate 63 g ai/ha
  Post-emerge phytotoxicity rating CORN (crop damage): 0
[22]; Rate 250 g ai/ha
  Post-emerge phytotoxicity rating CORN (crop damage): 0
[23]; Rate 63 g ai/ha
  Post-emerge phytotoxicity rating RICE (crop damage): 0
[23]; Rate 250 g ai/ha
  Post-emerge phytotoxicity rating RICE (crop damage): 0
